Here are results for 16 molecules from patent publication US7544497B2, “Compositions for manipulating the lifespan and stress response of cells and organisms” (President and Fellows of Harvard College, priority 2003, dated 2009).

One series has as its target T1, recombinant human SIRT1 (Homo sapiens, UniProt Q96EB6).
T1 sequence (Q96EB6 1-747): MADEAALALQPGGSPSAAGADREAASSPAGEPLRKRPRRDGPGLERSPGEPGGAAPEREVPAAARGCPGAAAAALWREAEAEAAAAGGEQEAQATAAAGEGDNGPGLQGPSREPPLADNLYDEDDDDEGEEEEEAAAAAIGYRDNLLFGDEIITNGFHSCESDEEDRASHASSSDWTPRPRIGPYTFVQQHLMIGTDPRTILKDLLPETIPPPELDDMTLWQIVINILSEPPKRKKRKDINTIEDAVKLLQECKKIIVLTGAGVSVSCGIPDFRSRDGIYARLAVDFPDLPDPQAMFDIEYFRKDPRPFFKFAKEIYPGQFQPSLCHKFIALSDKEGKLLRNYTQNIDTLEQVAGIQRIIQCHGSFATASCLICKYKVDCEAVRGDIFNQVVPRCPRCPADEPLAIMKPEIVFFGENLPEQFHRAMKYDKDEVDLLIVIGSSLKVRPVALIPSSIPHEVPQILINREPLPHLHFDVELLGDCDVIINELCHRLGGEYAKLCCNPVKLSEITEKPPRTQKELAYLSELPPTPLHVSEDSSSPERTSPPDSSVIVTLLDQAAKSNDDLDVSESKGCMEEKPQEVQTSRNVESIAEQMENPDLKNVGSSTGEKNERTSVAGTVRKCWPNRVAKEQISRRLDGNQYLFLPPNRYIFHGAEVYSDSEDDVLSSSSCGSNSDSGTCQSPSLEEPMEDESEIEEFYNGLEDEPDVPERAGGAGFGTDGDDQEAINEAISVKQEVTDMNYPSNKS
The series can be described thus: SIRT1 fluorescent deacetylation assay (p53-382 acetylated peptide substrate). The series is classed as biochemical. As to conditions: for SIRT1 stimulating activity (in words): 25 μM NAD+, 25 μM p53-382 acetylated peptide. An excerpt:
To identify compounds that modulate SIRT1 activity, we screened a number of small molecule libraries using a fluorescent deacetylation assay in 96-well plates^26. The substrate used in the assay was a fluorogenic peptide based on the sequence encompassing the p53-K382 acetylation site, a known target of SIRT1 in vivo^20,21,27. This substrate was preferred over a variety of other fluorogenic peptide substrates that were based on other known HDAC targets (FIG. 5). The small molecule libraries included analogues of nicotinamide, ε-acetyl lysine, NAD^+, nucleotides, nucleotide analogues and purinergic ligands. From the initial screen, several sirtuin inhibitors were found (Supplementary Table 7). However, the most striking outcome was the identification of two compounds, quercetin and piceatannol, that stimulated SIRT1 activity five and eight-fold, respectively (Table 1). Both quercetin and piceatannol have been previously identified as protein kinase inhibitors^28,29.
His6-tagged recombinant SIRT1 and GST-tagged recombinant Sir2 were prepared as previously described^26. From 0.1 to 1 μg of SIRT1 and 1.5 μg of Sir2 were used per deacetylation assay (in 50 μl total reaction) as previously described^26. SIRT1 assays and certain of those for Sir2 employed the p53-382 acetylated substrate (‘Fluor de Lys-SIRT1’, BIOMOL) rather than FdL.
Themed compound libraries (BIOMOL) were used for primary and secondary screening. […] For water soluble compounds and negative controls, 1% v/v DMSO was added to the assay. […] HeLa cells were grown and the cellular deacetylation assays were performed and read, as above, but in full-volume 96-well microplates (Corning Costar 3595). Unless otherwise indicated all initial rate measurements were means of three or more replicates, obtained with single incubation times, at which point 5% or less of the substrate initially present had been deacetylated. Calculation of net fluorescence increases included subtraction of a blank value, which in the case of Sir2 was obtained by omitting the enzyme from the reaction and in the case of SIRT1 by adding an inhibitor (200 μM suramin or 1 mM nicotinamide) to the reaction prior to the acetylated substrate. […] All error bars represent the standard error of the mean.
All SIRT1 rate measurements used in the calculation of “Ratio to Control Rate” were obtained with 25 μM NAD^+ and 25 μM p53-382 acetylated peptide substrate were performed as described above and in K. T. Howitz et al. Nature (2003) 425: 191. All ratio data were calculated from experiments in which the total deacetylation in the control reaction was 0.25-1.25 μM peptide or 1-5% of the initial concentration of acetylated peptide.

A further series has as its system S. cerevisiae. Kind of series: Yeast replicative lifespan by micro-manipulation. As to conditions: 10 μM; for Average lifespan: complete 2% glucose medium, wild type untreated 22.9.
The subject of a further series is D. melanogaster. Kind of series: D. melanogaster adult survival assay. The series is classed as in vivo. The procedure: Survival assays were conducted independently with adult D. melanogaster in two laboratories. In the first laboratory, all trials used an yw marked wild-type strain. […] Newly eclosed adults were placed in 1L demography cages with approximately 75 males and 75 females. Three to four replicate 1L demography cages were used for each treatment group in each trial. Every two days, dead flies were removed and scored, and food vials were replenished. Food vials contained cornmeal-sugar-yeast diet with SAF yeast as either 2% or 3% by weight. […] Fresh stock solutions and adult media were prepared weekly. In the second laboratory, lifespan trials were conducted with the wild type strain Canton-S, dSir2^4.5 and […], University of Oregon), […], Stockholm University, Sweden), and dSir2^KG00871 (Drosophila Stock Center, Bloomington, Ind.). Larvae for all tests were reared on standard cornmeal-sugar-yeast diet. […] In all trials, 20 males with 20 females were placed into each of 10 vials/treatment group. Every two days, flies were passed into new vials and dead flies were counted. […] Fresh stock solution and adult media was prepared weekly.

In the next series the test system is Human 293 cells. The series can be described thus: Survival of 293 cells (Coulter counter). The series is classed as cell-based. As to conditions: 50 micromolar. The procedure:
Human 293 were grown to exponential phase under standard conditions and subjected to a dose of compound (50 micromolar) for 96 hours. The number of live cells each time point was counted using a Coulter counter.

The next series has as its target T2, SIRT1 deacetylase (Homo sapiens, UniProt Q96EB6).
T2 construct: purchased BIOMOL
T2 sequence (Q96EB6 1-747): T1 sequence (Q96EB6 1-747)
The series can be described thus: High-throughput SIRT1 screening protocol (384 well). The series is classed as biochemical. To be noted: 200 μM NAD+, 5 μM Fluor de Lys-SIRT1 substrate; roughly 50 μM. The protocol: The reaction mixture contains (final): 0.5 units/reaction SIRT1 deacetylase (BIOMOL); 200 μM NAD^+; 5 μM Fluor de Lys-SIRT1 substrate (BIOMOL); buffer (25 mM Tris/Cl, pH 8.0, 137 mM NaCl, 2.7 mM KCl, 1 mM MgCl2, and 1 mg/ml BSA). In addition, a reaction mixture containing no enzyme was made so that each well receiving compound has a corresponding “no enzyme control” well. Reactions were performed in black 384 well plates (NUNC) in a final volume of 25 μl/well.
The reactions were started by combining enzyme and substrate in a reaction mixture immediately prior to aliquoting in plates (or substrate only for “no enzyme control” plates). Mixture were aliquoted to plates using Biotek μFill (Biotek Instruments). Control mixtures were manually added to designated wells. A library compound was added at a desired concentration by pin transfer to both “with enzyme” and “no enzyme” plates. Compounds were added in at least triplicate (with enzyme reaction in duplicate and no enzyme controls) at a final concentration of roughly 50 μM. The plates were incubated at 37° C. for 30-60 minutes. Then 25 μl of 1× Developer II (BIOMOL) plus 2 mM nicotinamide were added to all wells to stop the reactions. The reactions were left for at least 30 minutes at 37° C. for the signal to develop. The plates were read in a microplate-reading fluorometer capable of excitation at a wavelength in the range of 350-380 nm and detection of emitted light in the range of 440-460 nm. A read time of 0.1 sec per well was used.

For the next series, the system named is C. elegans. The series can be described thus: C. elegans lifespan assay. To be noted: 100/500 μM, N2 worms, E. coli as food; untreated 100%. The series is classed as in vivo. The procedure:
Thus, the presence of resveratrol in the growth media of C. elegans extends their lifespan.
Bristol N2 (Caenorhabditis Genetics Center) was used as the wild-type strain. The sir-2.1 mutant strain was generated by backcrossing VC199 (sir-2.1 (ok434)) to N2 four times. Cultures were grown on standard NGM media and maintained on E. coli strain OP50. For the lifespan assays, synchronized animals were transferred to treatment plates as young adults (2 d after hatching, day 0 of assay), and were transferred to fresh treatment plates every 2 days for the first 6 to 8 days of the assay. […] For some lifespan trials, heat-killed OP50 were used as a food source. OP50 cultures were heated to 65° C. for 30 minutes, then pelleted and resuspended in 1/10 volume in S Basal supplemented with 10 mM MgSO4. In all assays, worms were monitored daily for mortality by gently probing with a platinum pick. Assays were performed at 24° C.

Series [1] can be described thus: Solution stability (t1/2) from SIRT1 fold-stimulation of aged stock. The series is classed as physicochemical. To be noted: ethanol stock 2.5 mM, room temperature, nitrogen atmosphere. The text has this: The fold-stimulation (ratio to control) obtained with a compound diluted from an aged stock solution was compared to an identical dilution from a stock solution freshly prepared from the solid compound. “t1/2” is defined as the time required for the SIRT1 fold-stimulation of the compound from the aged solution to decay to one-half of that obtained from a freshly prepared solution. […] Stocks were aged by storage at room temperature, in glass vials, under a nitrogen atmosphere.

SMILES strings stand for the structures. Where “and” joins values, the source holds several entries; their conditions need not be identical. Equal values may be shown once.

In the case of `O=c1c(O)c(-c2ccc(O)c(O)c2)oc2cc(O)cc(O)c12` [quercetin], the “stimulation of SIRT1 activity” value on recombinant human SIRT1 (initial screen) is listed as “five”. Further, the Average lifespan in the series with S. cerevisiae is 23.4 generations.

Turning to `NC(=O)c1cccnc1` [Nicotinamide], on recombinant human SIRT1 (50 μM nicotinamide, absence of resveratrol, NAD+ or p53-382 acetylated peptide varied), the “SIRT1 Vmax decrease” value was 30% and 36%.

As for `O=c1c(O)c(-c2ccc(O)c(O)c2)oc2cc(O)ccc12` [fisetin], in the series with D. melanogaster (restricted diet), the “longevity on restricted diet” value was “neither resveratrol nor fisetin further increased longevity”. Moreover, in the series with D. melanogaster (wild type, males and females, independent tests), the “lifespan extension (up to)” value is “up to 23%”. In addition, the Average lifespan in the series on S. cerevisiae was found to be 30.0 generations.

For `CCc1ccc(/C=C/c2cc(O)cc(O)c2)cc1` [BML-225], the entries for the “Survival of 293 cells” value with Human 293 cells (0 h), with Human 293 cells (48 h) and in the series with Human 293 cells (96 h) were 100%, 5% and 8%, respectively.

`Oc1cc(O)cc(/C=C/c2ccccc2)c1` [Pinosylvin, 3,5-Dihydroxy-trans-stilbene]: the “SIRT1 stimulating activity (in words)” value on recombinant human SIRT1 was “did not significantly diminish”. Moreover, on SIRT1 deacetylase, the “activation of SIRT1 (positive controls)” value came out at 3.28 fold.

With `O=C(Nc1cc(O)cc(O)c1)c1ccccc1` [BML-219, N-(3,5-Dihydroxyphenyl)benzamide], the “SIRT1 stimulating activity (in words)” value on recombinant human SIRT1 is listed as “abolished activity”.

With `O=c1c(-c2ccc(O)cc2)coc2cc(O)cc(O)c12` [genistein], the “SIRT1 stimulating activity (in words)” value at recombinant human SIRT1 is on record as “absence of activity”.

For the molecule `Oc1cc(O)cc(/C=C/c2ccc(Cl)cc2)c1` [BML-217, 3,5-Dihydroxy-4′-chloro-trans-stilbene], on recombinant human SIRT1, the “SIRT1 stimulating activity (in words)” value is reported as “did not significantly diminish”.

In the case of `COc1ccc(/C=C/c2cc(O)cc(O)c2)cc1` [BML-233, 3,5-Dihydroxy-4′-methoxy-trans-stilbene], the “activation of SIRT1 (positive controls)” value at SIRT1 deacetylase was 2.1 fold.

In turn, `Oc1cc(O)cc(/C=C/c2ccc(O)c(O)c2)c1` [piceatannol] displayed an Average lifespan with S. cerevisiae of 24.0 generations.

On to `Oc1cc(O)cc(/C=C/C2CCCCC2)c1` [BML-224], for which the “SIRT1 stimulating activity (in words)” value on recombinant human SIRT1 was “nearly as detrimental”.

The molecule `O=C(/C=C/c1ccc(O)c(O)c1)c1ccc(O)cc1O` [butein] displayed an Average lifespan in the series with S. cerevisiae of 35.5 generations.

In the case of `CC(=O)Oc1cc(O)cc(/C=C/c2ccc(O)cc2)c1` [BML-221, 3,4′-Dihydroxy-5-acetoxy-trans-stilbene], in the series on C. elegans, the “% change in C. elegans lifespan relative to untreated organisms” value was >100% (ongoing). Moreover, in series [1], the “solution stability relative to resveratrol” value is “vast improvement”. Besides, in the series with S. cerevisiae (2% (w/v) glucose YPD, untreated 100%), the “% change in yeast replicative lifespan relative to untreated organisms” value is listed as 165%.

Consider `CSc1ccc(/C=C/c2cc(O)cc(O)c2)cc1` [BML-230], for which, at recombinant human SIRT1 (25 μM NAD+ and p53-382 acetylated peptide, 20 minutes), the “SIRT1 dose response, stimulated activity compared with resveratrol” value is listed as “exceeds that stimulated by resveratrol at all concentrations tested”. The “ratio (R) of BML-230-stimulated to resveratrol-stimulated SIRT1 rate” value at recombinant human SIRT1 (500 μM activator, 25 μM NAD+ and p53-382 acetylated peptide, 20 minutes) is around 1.4. The “Survival of 293 cells” value in the series with Human 293 cells (0 h) is reported as 100%; in the series on Human 293 cells (48 h), 55%; with Human 293 cells (96 h), 57%.

`[N-]=[N+]=Nc1ccc(/C=C/c2cc(O)cc(O)c2)cc1` [BML-232]: the “SIRT1 stimulating activity (in words)” value at recombinant human SIRT1 was “very similar SIRT1 activating properties to resveratrol”.

For `Cc1ccc(/C=C/c2cc(O)cc(O)c2)cc1` [BML-228], the “Survival of 293 cells” value in the series on Human 293 cells (0 h) came to 100%; with Human 293 cells (48 h) it was 46%; in the series with Human 293 cells (96 h), 32%.
